Data taken from patent US9409905B2, “Antibacterial compounds and methods for use” (PTC THERAPEUTICS, INC., priority 2011, dated 2016).
Converted amounts (≈) assume the structure as drawn.

Assays:
[1] = test system: E. coli 25922; test: Antibacterial activity, microbroth dilution MIC (Table 1); format: cell-based, Escherichia coli; conditions: Escherichia coli; microbroth dilution; control Gram-negative E. coli 25922 strain; read-out: MIC, 25922
Summary of the method: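 Lowest concentration stopping macroscopically visible growth under test conditions, by broth microdilution, defines the MIC (μg/mL).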

[2] = test system: Pseudomonas aeruginosa (P. aeruginosa) 27853; test: Antibacterial activity, MIC (Table 5); format: cell-based; conditions: P. aeruginosa 27853, read-out: MIC, 27853
Summary of the method: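 Values are MICs in μg/mL, read as the lowest concentration at which no growth is visible by eye. They were determined by a microbroth dilution method.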

[3] = test system: Acinetobacter baumannii (A. baumannii) BAA747; test: Antibacterial activity, MIC (Table 4); format: cell-based; conditions: A. baumannii BAA747, read-out: MIC, BAA747
Summary of the method: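 MIC (μg/mL) by microbroth dilution, taken as the lowest drug concentration preventing macroscopically visible growth. MXX strains are multi-drug resistant clinical isolates.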

[4] = test system: E. coli ELZ4000; test: Antibacterial activity, MIC, multi-drug resistant clinical isolate (Table 3); format: cell-based; conditions: Escherichia coli, ELZ4000, read-out: MIC ELZ4000
Text: (§1) The antibacterial activity from a microbroth dilution method may be presented as the minimum inhibitory concentration (MIC in μg/mL). The MIC value is the lowest concentration of drug which prevents macroscopically visible growth under test conditions.
(§2) Antibacterial activity of test compounds against E. coli ELZ4000 and E. coli ELZ4251 multi-drug resistant clinical isolates is shown in Table 3.

[5] = test system: E. coli ELZ4251; test: as above; format: cell-based; conditions: Escherichia coli
Text: as §1, §2

[6] = test system: Escherichia coli (E. coli) BAS849; test: Antibacterial activity, microbroth dilution MIC (Table 1); format: cell-based; conditions: microbroth dilution, super sensitive Gram-negative E. coli BAS849, read-out: MIC, BAS849
Summary of the method: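 Growth inhibition by microbroth dilution. MIC = lowest μg/mL with no visible growth. Strain 25922 is the control Gram-negative; BAS849 is hypersensitive.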

[7] = test system: Staphylococcus aureus (S. aureus) 29213; test: as above; format: cell-based; conditions: microbroth dilution, Gram-positive S. aureus 29213, read-out: MIC, 29213
Summary of the method: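 MIC (μg/mL) is taken as the lowest concentration with no macroscopically visible growth. Strains tested by microbroth dilution: Gram-positive S. aureus 29213, control Gram-negative E. coli 25922, and super-sensitive E. coli BAS849.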

[8] = test system: E. coli LZ3111; test: Antibacterial activity, MIC, quinolone resistant strain (Table 2); format: cell-based; conditions: Escherichia coli, LZ3111, read-out: MIC LZ3111
Summary of the method: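 MIC values (μg/mL) came from a microbroth dilution assay, scored as the lowest drug concentration at which no growth was visible by eye.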

SMILES | MIC [1] [µg/mL] | MIC [2] [µg/mL] | MIC [3] [µg/mL] | MIC [4] [µg/mL] | MIC [5] [µg/mL] | MIC [6] [µg/mL] | MIC [7] [µg/mL] | MIC [8] [µg/mL]
CCc1c(-c2ccc3c(c2)cc(CN2CCCC2CN(C)C)n3C)[nH]c(=O)c(C(=O)O)c1O (stereo not drawn) [Cpd 202, 6-(2-((2-((dimethylamino)methyl)pyrrolidin-1-yl)methyl)-1-methyl-1H-indol-5-yl)-5-ethyl-4-hydroxy-2-oxo-1,2-dihydropyridine-3-carboxylic acid] | 3.5 to 12.5 (≈ 7.73 to 27.6 µM) | 12.5 to 150 (≈ 27.6 to 331 µM) | 12.5 to 150 (≈ 27.6 to 331 µM) | 12.5 to 150 (≈ 27.6 to 331 µM) | 12.5 to 150 (≈ 27.6 to 331 µM) | < 1 | 12.5 to 150 (≈ 27.6 to 331 µM) | 3.5 to 12.5 (≈ 7.73 to 27.6 µM)
CCc1c(-c2ccc3c(c2)cc(CN(C)C2CCCNC2)n3C)[nH]c(=O)c(C(=O)O)c1O (stereo not drawn) [Cpd 262, 5-ethyl-4-hydroxy-6-(1-methyl-2-((methyl(piperidin-3-yl)amino)methyl)-1H-indol-5-yl)-2-oxo-1,2-dihydropyridine-3-carboxylic acid] | 3.5 to 12.5 (≈ 7.98 to 28.5 µM) | 12.5 to 150 (≈ 28.5 to 342 µM) | – | 12.5 to 150 (≈ 28.5 to 342 µM) | 12.5 to 150 (≈ 28.5 to 342 µM) | 1 to 3.5 (≈ 2.28 to 7.98 µM) | 12.5 to 150 (≈ 28.5 to 342 µM) | 3.5 to 12.5 (≈ 7.98 to 28.5 µM)
CCc1c(-c2ccc3c(c2)cc(CN(CC2CC2)C2CCNCC2)n3C)[nH]c(=O)c(C(=O)O)c1O [Cpd 264, 6-(2-(((cyclopropylmethyl)(piperidin-4-yl)amino)methyl)-1-methyl-1H-indol-5-yl)-5-ethyl-4-hydroxy-2-oxo-1,2-dihydropyridine-3-carboxylic acid] | 3.5 to 12.5 (≈ 7.31 to 26.1 µM) | 12.5 to 150 (≈ 26.1 to 313 µM) | – | 12.5 to 150 (≈ 26.1 to 313 µM) | 3.5 to 12.5 (≈ 7.31 to 26.1 µM) | 1 to 3.5 (≈ 2.09 to 7.31 µM) | 3.5 to 12.5 (≈ 7.31 to 26.1 µM) | 1 to 3.5 (≈ 2.09 to 7.31 µM)
CCc1c(-c2ccc3c(c2)cc(CN2C[C@H]4CC[C@@H](N(C)C)[C@H]4C2)n3C)[nH]c(=O)c(C(=O)O)c1O [Cpd 278, 6-(2-(((3aR,4R,6aS)-4-(dimethylamino)hexahydrocyclopenta[c]pyrrol-2(1H)-yl)methyl)-1-methyl-1H-indol-5-yl)-5-ethyl-4-hydroxy-2-oxo-1,2-dihydropyridine-3-carboxylic acid] | 1 to 3.5 (≈ 2.09 to 7.31 µM) | 12.5 to 150 (≈ 26.1 to 313 µM) | – | 12.5 to 150 (≈ 26.1 to 313 µM) | 12.5 to 150 (≈ 26.1 to 313 µM) | < 1 | 3.5 to 12.5 (≈ 7.31 to 26.1 µM) | 3.5 to 12.5 (≈ 7.31 to 26.1 µM)
CCc1c(-c2ccc3c(c2)cc(CN2C[C@H]4CCC[C@@H](N)[C@H]4C2)n3C)[nH]c(=O)c(C(=O)O)c1O [Cpd 284, 6-(2-(((3aR,4R,7aS)-4-amino-1H-isoindol-2(3H,3aH,4H,5H,6H,7H,7aH)-yl)methyl)-1-methyl-1H-indol-5-yl)-5-ethyl-4-hydroxy-2-oxo-1,2-dihydropyridine-3-carboxylic acid] | 1 to 3.5 (≈ 2.15 to 7.53 µM) | 3.5 to 12.5 (≈ 7.53 to 26.9 µM) | – | 12.5 to 150 (≈ 26.9 to 323 µM) | 12.5 to 150 (≈ 26.9 to 323 µM) | < 1 | 12.5 to 150 (≈ 26.9 to 323 µM) | 3.5 to 12.5 (≈ 7.53 to 26.9 µM)
CCc1c(-c2ccc3c(c2)cc(CN2C[C@H]4C[C@@H](N)C[C@H]4C2)n3C)[nH]c(=O)c(C(=O)O)c1O [Cpd 287, 6-(2-(((3aR,5r,6aS)-5-aminohexahydrocyclopenta[c]pyrrol-2(1H)-yl)methyl)-1-methyl-1H-indol-5-yl)-5-ethyl-4-hydroxy-2-oxo-1,2-dihydropyridine-3-carboxylic acid] | 3.5 to 12.5 (≈ 7.77 to 27.7 µM) | 12.5 to 150 (≈ 27.7 to 333 µM) | – | 12.5 to 150 (≈ 27.7 to 333 µM) | 12.5 to 150 (≈ 27.7 to 333 µM) | < 1 | 3.5 to 12.5 (≈ 7.77 to 27.7 µM) | 3.5 to 12.5 (≈ 7.77 to 27.7 µM)
CCc1c(-c2ccc3c(c2)cc(CN2C[C@H]4C[C@@H](N(C)Cc5ccccc5)C[C@H]4C2)n3C)[nH]c(=O)c(C(=O)O)c1O [Cpd 288, 6-(2-(((3aR,5r,6aS)-5-(benzyl(methyl)amino)hexahydrocyclopenta[c]pyrrol-2(1H)-yl)methyl)-1-methyl-1H-indol-5-yl)-5-ethyl-4-hydroxy-2-oxo-1,2-dihydropyridine-3-carboxylic acid] | 1 to 3.5 (≈ 1.8 to 6.31 µM) | 12.5 to 150 (≈ 22.5 to 270 µM) | – | 12.5 to 150 (≈ 22.5 to 270 µM) | 12.5 to 150 (≈ 22.5 to 270 µM) | < 1 | 3.5 to 12.5 (≈ 6.31 to 22.5 µM) | 12.5 to 150 (≈ 22.5 to 270 µM)
CCc1c(-c2ccc3c(c2)cc(CN2C[C@H]4C[C@@H](NC)C[C@H]4C2)n3C)[nH]c(=O)c(C(=O)O)c1O [Cpd 289, 5-ethyl-4-hydroxy-6-(1-methyl-2-(((3aR,5r,6aS)-5-(methylamino)hexahydrocyclopenta[c]pyrrol-2(1H)-yl)methyl)-1H-indol-5-yl)-2-oxo-1,2-dihydropyridine-3-carboxylic acid] | 12.5 to 150 (≈ 26.9 to 323 µM) | 12.5 to 150 (≈ 26.9 to 323 µM) | 12.5 to 150 (≈ 26.9 to 323 µM) | 12.5 to 150 (≈ 26.9 to 323 µM) | 12.5 to 150 (≈ 26.9 to 323 µM) | 1 to 3.5 (≈ 2.15 to 7.53 µM) | 12.5 to 150 (≈ 26.9 to 323 µM) | 3.5 to 12.5 (≈ 7.53 to 26.9 µM)
CCc1c(-c2ccc3c(c2)cc(CNCCN(C)C)n3C)[nH]c(=O)c(C(=O)O)c1O [Cpd 302, 6-(2-((2-(dimethylamino)ethylamino)methyl)-1-methyl-1H-indol-5-yl)-5-ethyl-4-hydroxy-2-oxo-1,2-dihydropyridine-3-carboxylic acid] | 1 to 3.5 (≈ 2.42 to 8.49 µM) | 12.5 to 150 (≈ 30.3 to 364 µM) | 3.5 to 12.5 (≈ 8.49 to 30.3 µM) | 12.5 to 150 (≈ 30.3 to 364 µM) | 3.5 to 12.5 (≈ 8.49 to 30.3 µM) | < 1 | 12.5 to 150 (≈ 30.3 to 364 µM) | 3.5 to 12.5 (≈ 8.49 to 30.3 µM)
Cn1c(CN2CCCC2)cc2cc(-c3[nH]c(=O)c(C(=O)O)c(O)c3C3CC3)ccc21 [Cpd 323, 5-cyclopropyl-4-hydroxy-6-(1-methyl-2-(pyrrolidin-1-ylmethyl)-1H-indol-5-yl)-2-oxo-1,2-dihydropyridine-3-carboxylic acid] | 12.5 to 150 (≈ 30.7 to 368 µM) | 12.5 to 150 (≈ 30.7 to 368 µM) | 12.5 to 150 (≈ 30.7 to 368 µM) | 12.5 to 150 (≈ 30.7 to 368 µM) | 3.5 to 12.5 (≈ 8.59 to 30.7 µM) | 1 to 3.5 (≈ 2.45 to 8.59 µM) | 12.5 to 150 (≈ 30.7 to 368 µM) | 3.5 to 12.5 (≈ 8.59 to 30.7 µM)
Cn1c(CN2CCC2)cc2cc(-c3[nH]c(=O)c(C(=O)O)c(O)c3C3CC3)ccc21 [Cpd 324, 6-(2-(azetidin-1-ylmethyl)-1-methyl-1H-indol-5-yl)-5-cyclopropyl-4-hydroxy-2-oxo-1,2-dihydropyridine-3-carboxylic acid] | 12.5 to 150 (≈ 31.8 to 381 µM) | 12.5 to 150 (≈ 31.8 to 381 µM) | 12.5 to 150 (≈ 31.8 to 381 µM) | 3.5 to 12.5 (≈ 8.9 to 31.8 µM) | 3.5 to 12.5 (≈ 8.9 to 31.8 µM) | 1 to 3.5 (≈ 2.54 to 8.9 µM) | 12.5 to 150 (≈ 31.8 to 381 µM) | 3.5 to 12.5 (≈ 8.9 to 31.8 µM)
Cn1c(CNCC2CC2)cc2cc(-c3[nH]c(=O)c(C(=O)O)c(O)c3C3CC3)ccc21 [Cpd 325, 5-cyclopropyl-6-(2-((cyclopropylmethylamino)methyl)-1-methyl-1H-indol-5-yl)-4-hydroxy-2-oxo-1,2-dihydropyridine-3-carboxylic acid] | 12.5 to 150 (≈ 30.7 to 368 µM) | 12.5 to 150 (≈ 30.7 to 368 µM) | 12.5 to 150 (≈ 30.7 to 368 µM) | 3.5 to 12.5 (≈ 8.59 to 30.7 µM) | 1 to 3.5 (≈ 2.45 to 8.59 µM) | 3.5 to 12.5 (≈ 8.59 to 30.7 µM) | 12.5 to 150 (≈ 30.7 to 368 µM) | 3.5 to 12.5 (≈ 8.59 to 30.7 µM)
Cn1c(CN2CCC2)cc2cc(-c3cc(O)c(C(=O)O)c(=O)[nH]3)ccc21 [Cpd 328, 6-(2-(azetidin-1-ylmethyl)-1-methyl-1H-indol-5-yl)-4-hydroxy-2-oxo-1,2-dihydropyridine-3-carboxylic acid] | 12.5 to 150 (≈ 35.4 to 424 µM) | 12.5 to 150 (≈ 35.4 to 424 µM) | 12.5 to 150 (≈ 35.4 to 424 µM) | 12.5 to 150 (≈ 35.4 to 424 µM) | 12.5 to 150 (≈ 35.4 to 424 µM) | 3.5 to 12.5 (≈ 9.9 to 35.4 µM) | 12.5 to 150 (≈ 35.4 to 424 µM) | 3.5 to 12.5 (≈ 9.9 to 35.4 µM)
CCc1c(-c2ccc3c(c2)cc(CN2CCCCC2)n3C)[nH]c(=O)c(C(=O)O)c1N [Cpd 331, 4-amino-5-ethyl-6-(1-methyl-2-(piperidin-1-ylmethyl)-1H-indol-5-yl)-2-oxo-1,2-dihydropyridine-3-carboxylic acid] | 3.5 to 12.5 (≈ 8.57 to 30.6 µM) | 12.5 to 150 (≈ 30.6 to 367 µM) | – | 12.5 to 150 (≈ 30.6 to 367 µM) | 12.5 to 150 (≈ 30.6 to 367 µM) | < 1 | 12.5 to 150 (≈ 30.6 to 367 µM) | 12.5 to 150 (≈ 30.6 to 367 µM)
